Source: PMC6730478, “Discovery of N-(2-Aminophenyl)-4-(bis(2-chloroethyl)amino)Benzamide as a Potent Histone Deacetylase Inhibitor” (Frontiers in Pharmacology, 2019)

Tests used:
[1] = tested on: MCF-7 cells; test: MTT antiproliferative assay; assay type: cell-based; settings: Homo sapiens, MCF7, 48 h, read-out: Antiproliferative activity IC50, MCF-7
Protocol: (§1) The stock solutions of tested compounds were diluted with culture medium. […] MTT working solution of 20 µl (5 mg/ml) was then added to each well and incubated for another 4 h. At the end of incubation, the medium were carefully removed, and 200 µl of DMSO was added. The optical density at 490 and 630 nm was then measured with a microplate reader (Model 680, Bio-Rad). […] The IC50 values were calculated with Origin 7.5 software, and standard deviations of the IC50 values were obtained from at least three independent experiments.

[2] = tested on: LoVo cells; test: MTT antiproliferative assay; assay type: cell-based; settings: Homo sapiens, 48 h, read-out: Antiproliferative activity IC50, LoVo
Protocol: as §1

[3] = tested on: MDA-MB-231 cells; test: MTT antiproliferative assay; assay type: cell-based; settings: Homo sapiens, MDA-MB-231, 48 h, read-out: Antiproliferative activity IC50, MDA-MB-231
Protocol: as §1

[4] = tested on: Calu-3 cells; test: MTT antiproliferative assay; assay type: cell-based; settings: Homo sapiens, Calu-3, 48 h, read-out: Antiproliferative activity IC50, Calu-3
Protocol: as §1

[5] = tested on: HepG2 cells; test: MTT antiproliferative assay; assay type: cell-based
Protocol: as §1

[6] = tested on: MKN45 cells; test: MTT antiproliferative assay; assay type: cell-based; settings: Homo sapiens, MKN-45, 48 h, read-out: Antiproliferative activity IC50, MKN45
Protocol: as §1

[7] = tested on: A549 cells; test: MTT antiproliferative assay; assay type: cell-based; settings: Homo sapiens, A549, 48 h, read-out: Antiproliferative activity IC50, A549
Protocol: as §1

[8] = tested on: Colo205 cells; test: MTT antiproliferative assay; assay type: cell-based; settings: Homo sapiens, COLO 205, 48 h, read-out: Antiproliferative activity IC50, Colo205
Protocol: as §1

[9] = tested on: SKOV3 cells; test: MTT antiproliferative assay; assay type: cell-based; settings: Homo sapiens, SK-OV-3, 48 h, read-out: Antiproliferative activity IC50, SKOV3
Protocol: as §1

[10] = tested on: PNAC-1 cells; test: MTT antiproliferative assay; assay type: cell-based; settings: 48 h, read-out: Antiproliferative activity IC50, PNAC-1
Protocol: as §1

[11] = tested on: U937 cells; test: MTT antiproliferative assay; assay type: cell-based; settings: Homo sapiens, U-937, 48 h, read-out: Antiproliferative activity IC50, U937
Protocol: as §1

[12] = tested on: MDA-MB-468 cells; test: MTT antiproliferative assay; assay type: cell-based; settings: Homo sapiens, MDA-MB-468, 48 h, read-out: Antiproliferative activity IC50, MDA-MB-468
Protocol: as §1

[13] = biological target: T1, HDAC3 (Homo sapiens, UniProt O15379); test: biochemical; settings: n ≥ 2, SD <10% of the mean; read-out: Enzyme inhibitory activity IC50, HDAC3
T1 construct: purchased BPS Bioscience
T1 sequence (O15379 whole entry): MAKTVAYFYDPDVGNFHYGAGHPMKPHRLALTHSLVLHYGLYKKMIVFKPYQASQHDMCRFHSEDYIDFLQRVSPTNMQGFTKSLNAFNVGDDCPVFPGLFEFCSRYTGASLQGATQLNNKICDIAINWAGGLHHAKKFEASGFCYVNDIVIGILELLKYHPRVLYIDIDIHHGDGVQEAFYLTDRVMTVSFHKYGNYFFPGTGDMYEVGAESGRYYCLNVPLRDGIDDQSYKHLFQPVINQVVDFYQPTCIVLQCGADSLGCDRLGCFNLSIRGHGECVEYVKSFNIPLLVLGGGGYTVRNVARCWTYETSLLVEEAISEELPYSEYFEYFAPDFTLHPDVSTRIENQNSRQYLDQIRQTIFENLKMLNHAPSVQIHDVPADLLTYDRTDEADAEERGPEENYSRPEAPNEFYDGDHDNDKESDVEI
T1 sequence (Q9Y618 395-489 partner limits assumed): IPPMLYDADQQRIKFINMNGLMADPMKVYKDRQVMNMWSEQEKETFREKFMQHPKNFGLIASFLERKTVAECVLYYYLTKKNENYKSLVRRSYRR
Protocol: (§2) All of the HDAC enzymes were bought from BPS Bioscience. In vitro HDAC inhibition assays were conducted as previously described. Briefly, 20 μl of recombinant HDAC enzyme solution (HDAC1−9) was mixed with various concentrations of tested compound (20 μl). The mixture was incubated at 30°C for 1 h (for the time-dependent assay, the mixture was incubated for 15, 30, 60, and 90 min, respectively), and then 10 μl of fluorogenic substrate (Boc-Lys (acetyl)-AMC (3 mM) for HDAC1, 2, 3, and 6, Boc-Lys (trifluoroacetyl)-AMC (3 mM) for HDAC 4, 7, 8, and 9) was added. After incubation at 30°C for 2 h, the catalytic reaction was stopped by addition of 10 μl of developer containing trypsin and trichostatin A (TSA). After 30 min, fluorescence intensity was measured using a microplate reader at excitation and emission wavelengths of 360 and 460 nm, respectively. The inhibition ratios were calculated from the fluorescence intensity readings of tested wells relative to those of control wells, and the IC50 curves and values were determined by GraphPad Prism 6.0 software.

[14] = biological target: T2, HDAC2 (Homo sapiens, UniProt Q92769); test: biochemical; settings: n ≥ 2, SD <10% of the mean; read-out: Enzyme inhibitory activity IC50, HDAC2
T2 construct: purchased BPS Bioscience
Protocol: as §2

[15] = biological target: T3, HDAC9 (Homo sapiens, UniProt Q9UKV0); test: biochemical
T3 construct: purchased BPS Bioscience
Protocol: as §2

[16] = biological target: T4, HDAC6 (Homo sapiens, UniProt Q9UBN7); test: biochemical
T4 construct: purchased BPS Bioscience
T4 sequence (Q9UBN7 whole entry): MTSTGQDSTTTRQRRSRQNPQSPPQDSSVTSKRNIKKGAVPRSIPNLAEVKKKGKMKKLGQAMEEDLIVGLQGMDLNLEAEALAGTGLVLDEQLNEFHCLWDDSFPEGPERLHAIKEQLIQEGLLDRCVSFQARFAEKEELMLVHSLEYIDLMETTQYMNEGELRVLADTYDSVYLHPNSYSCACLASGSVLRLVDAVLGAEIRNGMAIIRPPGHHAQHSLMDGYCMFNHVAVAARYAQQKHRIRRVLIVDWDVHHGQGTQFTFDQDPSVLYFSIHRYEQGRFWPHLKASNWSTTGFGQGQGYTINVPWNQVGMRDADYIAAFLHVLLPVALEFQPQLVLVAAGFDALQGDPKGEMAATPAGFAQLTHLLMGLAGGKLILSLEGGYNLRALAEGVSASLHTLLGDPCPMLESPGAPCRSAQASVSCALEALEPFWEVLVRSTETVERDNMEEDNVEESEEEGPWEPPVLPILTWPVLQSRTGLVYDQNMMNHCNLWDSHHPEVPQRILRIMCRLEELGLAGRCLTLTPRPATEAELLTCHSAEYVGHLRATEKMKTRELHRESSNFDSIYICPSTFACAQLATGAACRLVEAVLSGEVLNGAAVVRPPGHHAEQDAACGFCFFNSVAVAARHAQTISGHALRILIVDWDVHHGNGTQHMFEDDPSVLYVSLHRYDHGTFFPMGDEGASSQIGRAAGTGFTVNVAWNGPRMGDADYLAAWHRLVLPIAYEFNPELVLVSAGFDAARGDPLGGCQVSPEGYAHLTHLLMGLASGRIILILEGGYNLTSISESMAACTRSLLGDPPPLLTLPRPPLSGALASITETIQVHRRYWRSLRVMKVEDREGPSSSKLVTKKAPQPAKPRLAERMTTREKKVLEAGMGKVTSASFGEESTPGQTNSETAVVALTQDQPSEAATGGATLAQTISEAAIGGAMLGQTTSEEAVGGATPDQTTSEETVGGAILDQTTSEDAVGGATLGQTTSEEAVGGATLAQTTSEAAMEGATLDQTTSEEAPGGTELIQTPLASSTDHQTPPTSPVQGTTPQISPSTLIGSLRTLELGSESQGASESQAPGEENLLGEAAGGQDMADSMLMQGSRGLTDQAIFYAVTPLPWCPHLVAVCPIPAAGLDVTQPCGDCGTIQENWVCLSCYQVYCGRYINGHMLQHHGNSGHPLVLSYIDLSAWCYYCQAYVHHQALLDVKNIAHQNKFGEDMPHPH
Protocol: as §2

[17] = biological target: T5, HDAC4 (Homo sapiens, UniProt P56524); test: biochemical
T5 construct: purchased BPS Bioscience
T5 sequence (P56524 whole entry): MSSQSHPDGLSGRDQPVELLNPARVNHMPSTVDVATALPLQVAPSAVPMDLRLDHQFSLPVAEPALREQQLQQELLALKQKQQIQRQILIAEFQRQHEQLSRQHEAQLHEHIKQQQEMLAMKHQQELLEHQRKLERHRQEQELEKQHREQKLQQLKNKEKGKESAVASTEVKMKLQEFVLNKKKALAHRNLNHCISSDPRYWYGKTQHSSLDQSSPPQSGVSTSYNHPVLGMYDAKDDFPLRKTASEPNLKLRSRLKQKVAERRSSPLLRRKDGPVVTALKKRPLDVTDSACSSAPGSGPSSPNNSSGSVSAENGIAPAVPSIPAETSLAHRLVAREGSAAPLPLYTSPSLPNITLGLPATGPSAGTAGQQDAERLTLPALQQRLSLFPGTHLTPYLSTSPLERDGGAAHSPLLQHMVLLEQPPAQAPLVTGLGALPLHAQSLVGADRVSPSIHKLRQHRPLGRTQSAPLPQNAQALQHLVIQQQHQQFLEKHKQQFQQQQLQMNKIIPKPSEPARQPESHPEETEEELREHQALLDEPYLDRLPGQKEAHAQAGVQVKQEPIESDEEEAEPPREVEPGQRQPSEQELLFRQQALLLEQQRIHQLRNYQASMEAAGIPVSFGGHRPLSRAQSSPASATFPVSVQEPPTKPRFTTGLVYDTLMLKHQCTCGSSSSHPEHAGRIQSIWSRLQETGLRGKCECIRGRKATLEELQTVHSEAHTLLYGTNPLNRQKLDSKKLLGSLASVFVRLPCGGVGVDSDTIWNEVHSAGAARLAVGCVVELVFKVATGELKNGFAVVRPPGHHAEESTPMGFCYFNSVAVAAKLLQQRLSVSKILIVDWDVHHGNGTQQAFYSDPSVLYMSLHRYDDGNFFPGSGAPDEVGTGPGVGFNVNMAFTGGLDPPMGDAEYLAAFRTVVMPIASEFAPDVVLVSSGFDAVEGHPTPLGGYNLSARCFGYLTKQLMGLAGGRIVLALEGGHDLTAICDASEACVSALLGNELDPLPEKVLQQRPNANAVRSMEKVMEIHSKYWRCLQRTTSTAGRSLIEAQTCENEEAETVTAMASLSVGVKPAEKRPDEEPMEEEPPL
Protocol: as §2

[18] = biological target: T6, HDAC8 (Homo sapiens, UniProt Q9BY41); test: biochemical
T6 construct: purchased BPS Bioscience
T6 sequence (Q9BY41 whole entry): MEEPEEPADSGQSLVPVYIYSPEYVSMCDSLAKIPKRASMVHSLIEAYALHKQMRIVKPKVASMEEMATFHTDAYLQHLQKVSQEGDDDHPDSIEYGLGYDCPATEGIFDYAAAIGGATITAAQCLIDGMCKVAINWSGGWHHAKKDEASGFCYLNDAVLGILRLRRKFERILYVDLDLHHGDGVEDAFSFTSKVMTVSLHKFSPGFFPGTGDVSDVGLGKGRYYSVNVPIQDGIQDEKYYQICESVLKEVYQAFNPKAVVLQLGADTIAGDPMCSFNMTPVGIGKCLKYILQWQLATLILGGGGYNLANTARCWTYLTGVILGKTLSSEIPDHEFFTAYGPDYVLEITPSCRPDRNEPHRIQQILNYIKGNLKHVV
Protocol: as §2

[19] = tested on: HepG2 cells; test: Cell cycle assay (PI staining, flow cytometry); assay type: cell-based; settings: 6 h; for HepG2 cells at the G2/M phase: control 21.24%; for HepG2 cell population at the G0/G1 phase: control 55.60%
Protocol: Cells were then washed twice with cold phosphate-buffered saline (PBS) and fixed in 70% precooled ethanol at 4°C for 12 h. After the fixation, cells were washed again with PBS and stained with PI/RNase A for 30 min at room temperature and eventually subjected to flow cytometry (CytoFLEX, Beckman Coulter) for cell cycle distribution determination.

[20] = biological target: T7, HDAC1 (Homo sapiens, UniProt Q13547); test: In vitro HDAC inhibitory assay (fluorogenic substrate); assay type: biochemical
T7 construct: purchased BPS Bioscience
T7 sequence (Q13547 whole entry): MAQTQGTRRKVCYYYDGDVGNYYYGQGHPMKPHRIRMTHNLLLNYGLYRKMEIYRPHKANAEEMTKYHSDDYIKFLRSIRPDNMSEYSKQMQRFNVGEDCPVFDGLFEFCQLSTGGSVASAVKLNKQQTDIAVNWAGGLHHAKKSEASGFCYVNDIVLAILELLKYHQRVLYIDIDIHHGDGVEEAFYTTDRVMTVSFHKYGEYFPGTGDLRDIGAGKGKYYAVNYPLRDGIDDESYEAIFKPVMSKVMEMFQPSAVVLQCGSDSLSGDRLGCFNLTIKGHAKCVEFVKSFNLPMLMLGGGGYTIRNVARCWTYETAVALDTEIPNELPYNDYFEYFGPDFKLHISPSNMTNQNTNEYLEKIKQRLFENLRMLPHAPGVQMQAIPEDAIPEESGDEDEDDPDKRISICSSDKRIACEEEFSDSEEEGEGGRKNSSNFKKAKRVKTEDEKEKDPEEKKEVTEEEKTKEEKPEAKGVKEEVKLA
Protocol: as §2

[21] = biological target: T8, HDAC7 (Homo sapiens, UniProt Q8WUI4); test: as above; assay type: biochemical; settings: n ≥ 2, SD <10% of the mean; read-out: Enzyme inhibitory activity IC50, HDAC7
T8 construct: purchased BPS Bioscience
T8 sequence (Q8WUI4 whole entry): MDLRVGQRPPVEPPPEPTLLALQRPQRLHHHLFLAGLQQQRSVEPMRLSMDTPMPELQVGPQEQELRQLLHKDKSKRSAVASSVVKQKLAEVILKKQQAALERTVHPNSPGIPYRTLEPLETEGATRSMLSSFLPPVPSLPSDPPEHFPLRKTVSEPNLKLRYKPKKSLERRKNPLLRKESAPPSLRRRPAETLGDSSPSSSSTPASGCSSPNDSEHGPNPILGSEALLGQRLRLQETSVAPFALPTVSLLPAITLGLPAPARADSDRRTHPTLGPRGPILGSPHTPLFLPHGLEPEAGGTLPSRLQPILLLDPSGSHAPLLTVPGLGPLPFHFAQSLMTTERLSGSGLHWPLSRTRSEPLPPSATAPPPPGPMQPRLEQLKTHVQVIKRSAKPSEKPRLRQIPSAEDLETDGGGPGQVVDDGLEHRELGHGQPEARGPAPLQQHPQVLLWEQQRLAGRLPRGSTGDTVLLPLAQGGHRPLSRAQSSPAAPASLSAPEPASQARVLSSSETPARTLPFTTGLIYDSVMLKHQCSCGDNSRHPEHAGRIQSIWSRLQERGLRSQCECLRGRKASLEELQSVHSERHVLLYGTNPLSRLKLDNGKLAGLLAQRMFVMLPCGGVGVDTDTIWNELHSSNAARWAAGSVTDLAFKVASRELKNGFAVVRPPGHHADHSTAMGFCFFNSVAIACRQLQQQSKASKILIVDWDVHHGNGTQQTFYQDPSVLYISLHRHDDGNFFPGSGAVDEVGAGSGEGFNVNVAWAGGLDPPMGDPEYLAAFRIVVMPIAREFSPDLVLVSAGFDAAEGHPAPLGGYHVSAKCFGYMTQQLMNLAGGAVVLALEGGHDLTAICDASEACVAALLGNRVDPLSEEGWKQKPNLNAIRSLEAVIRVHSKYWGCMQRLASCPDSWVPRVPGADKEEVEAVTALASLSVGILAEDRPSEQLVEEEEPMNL
Protocol: as §2

[22] = tested on: HepG2 cells; test: Annexin V-FITC/PI apoptosis detection (flow cytometry); assay type: cell-based; settings: 24 h, control 3.52%
Protocol: Cells were then washed with PBS, collected, resuspended with binding buffer from the annexin V-FITC kit (Thermo Fisher Co., USA) and then added with 5 µl of annexin V-FITC and mixed gently. After 10 min of incubation, 1 µl of PI was added to each sample and mixed gently. After incubation at room temperature for another 20 min in the dark, cells were subjected to flow cytometry (CytoFLEX, Beckman Coulter).

[23] = tested on: cleaved caspase-3; test: Western blot in HepG2 cells; assay type: cell-based; settings: 1 µM, 24 h, compared with SAHA
Protocol: (§3) Protein sample concentrations were determined with Brandford assay. Thirty micrograms of each sample was subjected to sodium dodecyl sulfate–polyacrylamide gel electrophoresis (SDS-PAGE). After electrophoresis, proteins were transferred to polyvinylidene difluoride (PVDF) membrane (Millipore) and blocked with 5% fat-free dry milk in 1 × Tris-buffered saline (TBST) for 2 h at room temperature. Membranes were then probed with corresponding antibodies at 4°C overnight. Cleaved caspase-3 (#9661), caspase-3 (#9662), cleaved caspase-9 (#9505), caspase-9 (#9508), phospho-cdc2 (#4539), and cdc2 (#77055) antibodies were obtained from Cell Signaling Technology (Danvers, MA). Expression of human β-actin was detected with anti-β-actin antibody (Proteintech, Rosemont, IL) as a loading control. The membranes were then incubated with horseradish peroxidase (HRP)-conjugated secondary antibody (Santa Cruz, CA) and visualized with enhanced chemiluminescence (ECL)-detecting reagents (ComWin Biotech Co., Beijing, China).

[24] = tested on: cleaved caspase-9; test: Western blot in HepG2 cells; assay type: cell-based; settings: 1 µM, 24 h, compared with SAHA
Protocol: as §3

[25] = tested on: phosphorylated cdc2; test: Western blot in HepG2 cells; assay type: cell-based; settings: 1 µM, 24 h, compared with SAHA
Protocol: as §3

[26] = tested on: A2780 cells; test: MTT antiproliferative assay; assay type: cell-based; settings: for IC50: Homo sapiens, A2780, 48 h, read-out: Antiproliferative activity IC50, A2780
Protocol: . The stock solutions of tested compounds were diluted with culture medium. The cells were seeded in 96-well plates at a density 5 × 10^3 cells per well and incubated until confluency of 90–95%, and then each well was treated with 100 µl of medium containing the desired concentrations of tested compounds and incubated for 48 h. MTT working solution of 20 µl (5 mg/ml) was then added to each well and incubated for another 4 h. At the end of incubation, the medium were carefully removed, and 200 µl of DMSO was added. The optical density at 490 and 630 nm was then measured with a microplate reader (Model 680, Bio-Rad). […] The IC50 values were calculated with Origin 7.5 software, and standard deviations of the IC50 values were obtained from at least three independent experiments.

[27] = more potent than SAHA, ratio of IC50 values

Q: Which IC50 [1] does the source give for `Nc1ccccc1NC(=O)c1ccc(N(CCCl)CCCl)cc1` [NA, N-(2-Aminophenyl)-4-(bis(2-chloroethyl)amino)benzamide] here?
A: 18.7 µM

Q: What about the IC50 [2] of the same compound?
A: 10.4 µM

Q: And the IC50 [3]?
A: 7.64 µM

Q: And the IC50 [4]?
A: 5.81 µM

Q: And the IC50 ([5]; Homo sapiens, HepG2, 48 h, read-out: Antiproliferative activity IC50, HepG2)?
A: 1.73 µM

Q: And the “Potency relative to SAHA, HepG2 cell growth inhibition” value [5, 27]?
A: 11.3 fold

Q: And the IC50 [6]?
A: 14.3 µM

Q: What about the IC50 [7] of the same compound?
A: 14.7 µM

Q: What about the IC50 [8] of the same compound?
A: 33.8 µM

Q: And the IC50 [9]?
A: 3.91 µM

Q: What about the IC50 [10] of the same compound?
A: 8.52 µM

Q: What about the IC50 [11] of the same compound?
A: 1.21 µM

Q: And the IC50 [12]?
A: 6.33 µM

Q: What about the IC50 [13] of the same compound?
A: 0.256 µM

Q: And the IC50 [14]?
A: 0.261 µM

Q: And the IC50 [15]?
A: > 5 µM

Q: And the IC50 [16]?
A: > 5 µM

Q: What about the IC50 [17] of the same compound?
A: > 5 µM

Q: What about the IC50 [18] of the same compound?
A: > 5 µM

Q: And the “HepG2 cells at the G2/M phase” value ([19]; 1 µM)?
A: 25.98%

Q: What about the “HepG2 cell population at the G0/G1 phase” value ([19]; 1 µM) of the same compound?
A: 48.64%

Q: What about the “HepG2 cells at the G2/M phase” value ([19]; 3 µM) of the same compound?
A: 35.05%

Q: And the “HepG2 cell population at the G0/G1 phase” value ([19]; 3 µM)?
A: 41.61%

Q: What about the “HepG2 cells at the G2/M phase” value ([19]; 9 µM) of the same compound?
A: 38.89%

Q: What about the “HepG2 cell population at the G0/G1 phase” value ([19]; 9 µM) of the same compound?
A: 37.19%

Q: What about the IC50 ([20]; n ≥ 2, SD <10% of the mean, read-out: Enzyme inhibitory activity IC50, HDAC1) of the same compound?
A: 0.0952 µM

Q: And the “HDAC1 selectivity versus HDAC2” value ([20]; ratio of IC50 values, HDAC1 versus HDAC2)?
A: 2.74 fold

Q: And the “HDAC1 selectivity versus HDAC3” value ([20]; ratio of IC50 values, HDAC1 versus HDAC3)?
A: 2.69 fold

Q: And the IC50 [21]?
A: > 5 µM

Q: What about the “Percentage of apoptotic HepG2 cells” value ([22]; 1 µM) of the same compound?
A: 9.15%

Q: And the “Percentage of apoptotic HepG2 cells” value ([22]; 3 µM)?
A: 18.07%

Q: And the “Percentage of apoptotic HepG2 cells” value ([22]; 9 µM)?
A: 37.39%

Q: And the “Protein expression level of cleaved caspase-3” value [23]?
A: remarkedly increased

Q: What about the “Protein expression level of cleaved caspase-9” value [24] of the same compound?
A: remarkedly increased

Q: And the “Phosphorylation of cdc2” value [25]?
A: up-regulated

Q: What about the IC50 [26] of the same compound?
A: 2.66 µM

Q: And the “Potency relative to SAHA, A2780 cell growth inhibition” value [26, 27]?
A: 10.3 fold

Q: Which results are given for `O=C(CCCCCCC(=O)Nc1ccccc1)NO` [SAHA, Suberoylanilide hydroxamic acid, reference compound]?
A: Effect on the population of HepG2 cells at the G0/G1 phase (in words) ([19]; 1, 3, and 9 µM): no significant effects; Percentage of apoptotic HepG2 cells ([22]; 1 µM): 4.52%; Percentage of apoptotic HepG2 cells ([22]; 3 µM): 6.24%; Percentage of apoptotic HepG2 cells ([22]; 9 µM): 20.32%; IC50 [26]: 27.3 µM
